Experimental data published in ChEMBL document CHEMBL1128985, “Mechanism-based inactivation of -chymotrypsin” (Bioorg Med Chem Lett, 1996).

Legend:
[1] = biological target: T1, Chymotrypsin-like elastase family member 2A (Sus scrofa) (UniProt P08419); test: Irreversible inhibitory activity against porcine pancreatic elastase at concentration 4.8 uM; No irreversible inhibitory activity
T1 sequence (whole entry): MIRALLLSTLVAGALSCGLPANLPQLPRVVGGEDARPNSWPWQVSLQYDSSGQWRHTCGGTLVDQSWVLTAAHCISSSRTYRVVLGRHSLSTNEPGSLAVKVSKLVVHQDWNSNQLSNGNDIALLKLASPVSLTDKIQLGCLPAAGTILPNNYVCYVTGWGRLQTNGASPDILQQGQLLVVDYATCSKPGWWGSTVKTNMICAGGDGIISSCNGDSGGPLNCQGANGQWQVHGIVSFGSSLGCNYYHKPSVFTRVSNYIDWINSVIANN

[2] = biological target: Chymotrypsinogen A (Bos taurus) (UniProt P00766); test: Irreversible inhibitory activity against alpha-chymotrypsin; Inhibition observed
[3] = biological target: Chymotrypsinogen A (Bos taurus) (UniProt P00766); test: Irreversible inhibitory activity against alpha-chymotrypsin; No inhibition

Activity [1] [mM]	Activity [2] [µM]	Activity [3] [mM]	SMILES
1.2	500	–	CC(NC(=O)C(C)NC(=O)CCC(=O)N[C@@H](Cc1ccccc1)C(=O)OC1CC1(Cl)Cl)C(=O)O (some centres undefined)
–	–	< 1	O=C(O)CCC(=O)N[C@@H](Cc1ccccc1)C(=O)OC1CC1(Cl)Cl (some centres undefined)
–	–	14.5	O=C(O)CCC(=O)N[C@@H](Cc1ccccc1)C(=O)NC1CC1(Cl)Cl (some centres undefined)
